Laboratory results reported in patent US20070037788A1, “Tricyclic steroid hormone nuclear receptor modulators” (Eli Lilly and Company, priority 2003, published 2007).
Structures can show the parent of a compound that is named as a salt.

Biological target: T1, human MR (Homo sapiens, UniProt P08235)
T1 construct: The full length human MR gene is cloned from a human kidney or human brain cDNA library; made in house; host or cells: SF9 insect cells (baculovirus)
T1 sequence (P08235 1-984): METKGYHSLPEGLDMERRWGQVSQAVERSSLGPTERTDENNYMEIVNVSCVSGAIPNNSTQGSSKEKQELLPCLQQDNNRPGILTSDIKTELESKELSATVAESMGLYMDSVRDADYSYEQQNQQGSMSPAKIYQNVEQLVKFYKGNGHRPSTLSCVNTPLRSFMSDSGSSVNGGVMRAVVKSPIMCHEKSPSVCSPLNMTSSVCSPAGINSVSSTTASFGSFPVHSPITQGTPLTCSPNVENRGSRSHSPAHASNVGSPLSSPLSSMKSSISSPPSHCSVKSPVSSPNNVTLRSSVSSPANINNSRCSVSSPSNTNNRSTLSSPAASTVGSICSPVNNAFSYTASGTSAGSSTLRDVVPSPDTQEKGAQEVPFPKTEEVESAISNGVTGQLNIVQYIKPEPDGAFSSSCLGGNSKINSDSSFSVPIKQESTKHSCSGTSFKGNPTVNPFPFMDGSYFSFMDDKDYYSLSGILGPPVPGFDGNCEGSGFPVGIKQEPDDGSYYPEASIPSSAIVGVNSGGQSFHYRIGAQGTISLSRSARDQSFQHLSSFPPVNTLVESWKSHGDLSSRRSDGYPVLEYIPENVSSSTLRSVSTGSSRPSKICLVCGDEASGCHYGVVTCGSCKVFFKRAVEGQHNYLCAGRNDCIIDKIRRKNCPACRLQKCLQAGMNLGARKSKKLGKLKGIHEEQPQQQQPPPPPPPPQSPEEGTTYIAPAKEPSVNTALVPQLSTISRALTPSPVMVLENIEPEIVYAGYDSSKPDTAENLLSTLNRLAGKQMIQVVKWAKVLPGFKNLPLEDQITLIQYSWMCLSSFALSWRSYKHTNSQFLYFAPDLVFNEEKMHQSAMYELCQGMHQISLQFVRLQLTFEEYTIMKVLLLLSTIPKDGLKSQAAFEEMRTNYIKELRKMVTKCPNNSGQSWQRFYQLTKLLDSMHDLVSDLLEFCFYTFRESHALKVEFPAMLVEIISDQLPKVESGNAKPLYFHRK
Assay: Mineralocorticoid Receptor Binding Assay (Method 1)
Conditions: [3H]-aldosterone
Protocol: The full length human MR gene is cloned from a human kidney or human brain cDNA library. Briefly, using synthetic oligonucleotide primers (Eli Lilly and Company, Indianapolis) directed to nucleotides 20-54 and 3700-3666 of the human MR, polymerase chain reaction (PCR) is performed under standard conditions using a human cDNA library. The PCR reaction is performed in a final volume of 50 μl containing about 1 μl of a 50× stock solution of polymerase; about 1 μl of a 50× stock solution of DNTP; about 5 μl of an appropriate PCR buffer; about 1 μl of each primer; about 5 μl of a H. kidney or H. brain cDNA library; and about 36 μl of water. The reaction is allowed to denature for about 30 seconds at 95 degrees Celsius, anneal for about 30 seconds at 55 degrees Celsius, and extend for about 5 minutes at 72 degrees Celsius, the sequence being repeated for a total of about 35 cycles. The desired PCR product (3.68 Kb) is confirmed by gel electrophoresis and subsequently cut from the gel and stored at about −20 degrees Celsius until extraction. To extract the cDNA product from the agarose gel, the QIAEX II Gel Extraction protocol (QIAGEN, Inc.) is employed according to the manufacturer's instructions. Following extraction, the MR cDNA is cloned into an appropriate cloning vector (Zero Blunt TOPO PCR Cloning Kit (Invitrogen, Inc.) and a pAcHLT-baculovirus transfer vector (B.D./Pharminogen), then expressed in SF9 insect cells, essentially according to manufacturer's instructions. Sf9 cells are grown at a scale where gram quantity cell pellets are obtained for subsequent use in the MR binding assay. Harvested cell pellets are lysed by repeated freeze-thaw cycles (about 4) in a suitable lysis buffer then centrifuged at about 1×10^3 G (with the supernatant being saved for future assays).
MR binding assays are performed in a final total volume of about 250 μl containing about 20-25 μg of protein and 0.5 nM of [^3H]-aldosterone plus varying concentrations of test compound or vehicle. The assay binding buffer consists of 30 mM sodium molybdate, 30 mM of TRIS-HCl, 5 mM sodium phosphate, 5 mM sodium pyrophosphate, and about 10% glycerol, pH=7.5.
Briefly, assays are prepared at RT in 96-well Falcon 3072 plates, each well containing 210 μl of binding buffer, 10 μl of [^3H]-aldosterone, 10 μl of test compound/vehicle, and 20 μl of the resuspended receptor protein extract. Incubations are carried out at 4 degrees Celsius with shaking for about 16 hours. 200 μl aliquots of each incubation are filtered onto Millipore HA 0.45 micron 96-well filter plates, pre-moistened with cold 30 mM TRIS-HCl. The filter plates are suctioned dry with vacuum and immediately washed 3× with cold 30 mM TRIS-HCl. The plates are then punched out and the amount of receptor-ligand complex is determined by liquid scintillation counting using 4 ml of Ready Protein Plus™ liquid scintillation cocktail.

| Compound | Ki |
| --- | --- |
| CC(C)(CN1CCOCC1)n1c(=O)[nH]c2cc(/C=C3\c4ccccc4COc4cc(F)ccc43)ccc21 [Example 1, 1-(1,1-Dimethyl-2-morpholin-4-yl-ethyl)-5-(3-fluoro-6H-dibenzo[b,e]oxepin-11-ylidenemethyl)-1,3-dihydro-benzoimidazol-2-one, E isomer] | < 500 nM |
| CN1CCC(n2c(=O)[nH]c3cc(/C=C4/c5ccc(F)cc5OCc5c(F)cccc54)ccc32)CC1 [Example 2, 5-(3,7-Difluoro-6H-dibenzo[b,e]oxepine-11-ylidenemethyl)-1-(1-methyl-piperidin-4-yl)-1,3-dihydro-benzoimidazol-2-one, E-isomer] | < 500 nM |
| CN1CCC(n2c(=O)[nH]c3cc(/C=C4\c5ccccc5COc5cc(F)ccc54)ccc32)CC1 [Example 3, 5-(3-Fluoro-6H-dibenzo[b,e]oxepin-11-ylidenemethyl)-1-(1-methyl-piperidin-4-yl)-1,3-dihydro-benzoimidazol-2-one, E isomer] | < 500 nM |
| CN1CCC(n2c(=O)[nH]c3cc(/C=C4\c5ccc(F)cc5COc5cc(F)ccc54)ccc32)CC1 [Example 4, 5-(3,8-Difluoro-6H-dibenzo[b,e]oxepin-11-ylidenemethyl)-1-(1-methyl-piperidin-4-yl) -1,3-dihydro-benzoimidazol-2-one, E isomer] | < 500 nM |
| CCN1CC[C@@H](n2c(=O)[nH]c3cc(/C=C4\c5ccc(F)cc5COc5cc(F)ccc54)ccc32)C1 [Example 5, 5-(3,8-Difluoro-6H-dibenzo[b,e]oxepin-11-ylidenemethyl)-1-(1-ethyl-pyrrolidin-3-yl) -1,3-dihydro-benzoimidazol-2-one, HOAc salt, E isomer, chiral] | < 500 nM |
| CN1CCN(CCCn2c(=O)[nH]c3cc(/C=C4\c5ccccc5COc5cc(F)ccc54)ccc32)CC1 [Example 7] | < 500 nM |
| CN1CCN(CCn2c(=O)[nH]c3cc(/C=C4\c5ccccc5COc5cc(F)ccc54)ccc32)CC1 [Example 8] | < 500 nM |
| O=c1[nH]c2cc(/C=C3\c4ccccc4COc4cc(F)ccc43)ccc2n1[C@H]1CCNC1 [Example 9] | < 500 nM |
| C[C@H](CN1CCOCC1)n1c(=O)[nH]c2cc(/C=C3\c4ccccc4COc4cc(F)ccc43)ccc21 [Example 10] | < 500 nM |
| C[C@@H](CN1CCOCC1)n1c(=O)[nH]c2cc(/C=C3\c4ccccc4COc4cc(F)ccc43)ccc21 [Example 11] | < 500 nM |
| O=c1[nH]c2cc(/C=C3\c4ccccc4COc4cc(F)ccc43)ccc2n1C1CCNCC1 [Example 12] | < 500 nM |
| C[C@@H]1CN(CCn2c(=O)[nH]c3cc(/C=C4\c5ccccc5COc5cc(F)ccc54)ccc32)C[C@H](C)O1 [Example 13] | < 500 nM |
| O=c1[nH]c2cc(/C=C3\c4ccccc4COc4cc(F)ccc43)ccc2n1CCN1CCNCC1 [Example 14] | < 500 nM |
| O=c1[nH]c2cc(/C=C3\c4ccccc4COc4cc(F)ccc43)ccc2n1C1CCNC1 (centres unmarked) [Example 15] | < 500 nM |
| O=c1[nH]c2cc(/C=C3\c4ccccc4COc4cc(F)ccc43)ccc2n1C1CCNC1 (centres unmarked) [Example 16] | < 500 nM |
| O=c1[nH]c2cc(/C=C3\c4ccccc4COc4cc(F)ccc43)ccc2n1C1CNC1 [Example 17] | < 500 nM |
| O=c1[nH]c2cc(/C=C3\c4ccccc4COc4cc(F)ccc43)ccc2n1C[C@@H]1CCCN1 [Example 18] | < 500 nM |
| O=c1[nH]c2cc(/C=C3\c4ccccc4COc4cc(F)ccc43)ccc2n1C[C@H]1CCCN1 [Example 19] | < 500 nM |
| CN1CCN(CCn2c(=O)[nH]c3cc(/C=C4\c5ccc(F)cc5COc5cc(F)ccc54)ccc32)CC1 [Example 20] | < 500 nM |
| O=c1[nH]c2cc(/C=C3\c4ccc(F)cc4COc4cc(F)ccc43)ccc2n1CCN1CCCC1 [Example 21] | < 500 nM |
| C[C@H](CN1CCOCC1)n1c(=O)[nH]c2cc(/C=C3\c4ccc(F)cc4COc4cc(F)ccc43)ccc21 [Example 22] | < 500 nM |

| Compound | Ki |
| --- | --- |
| C[C@@H](CN1CCOCC1)n1c(=O)[nH]c2cc(/C=C3\c4ccc(F)cc4COc4cc(F)ccc43)ccc21 [Example 23] | < 500 nM |
| CC(C)(CN1CCOCC1)n1c(=O)[nH]c2cc(/C=C3\c4ccc(F)cc4COc4cc(F)ccc43)ccc21 [Example 24] | < 500 nM |
| C[C@@H]1CN(CCn2c(=O)[nH]c3cc(/C=C4\c5ccc(F)cc5COc5cc(F)ccc54)ccc32)C[C@H](C)O1 [Example 25] | < 500 nM |
| O=c1[nH]c2cc(/C=C3\c4ccc(F)cc4COc4cc(F)ccc43)ccc2n1CCCN1CCOCC1 [Example 26] | < 500 nM |
| O=c1[nH]c2cc(/C=C3\c4ccc(F)cc4COc4cc(F)ccc43)ccc2n1C1CCNCC1 [Example 28] | < 500 nM |
| O=c1[nH]c2cc(/C=C3\c4ccc(F)cc4COc4cc(F)ccc43)ccc2n1[C@H]1CCNC1 [Example 29] | < 500 nM |
| O=c1[nH]c2cc(/C=C3\c4ccc(F)cc4COc4cc(F)ccc43)ccc2n1C1CNC1 [Example 30] | < 500 nM |
| O=c1[nH]c2cc(/C=C3\c4ccc(F)cc4COc4cc(F)ccc43)ccc2n1[C@@H]1CCNC1 [Example 31] | < 500 nM |
| CN1CC[C@H](n2c(=O)[nH]c3cc(/C=C4\c5ccc(F)cc5COc5cc(F)ccc54)ccc32)C1 [Example 32] | < 500 nM |
| CCN1CC[C@H](n2c(=O)[nH]c3cc(/C=C4\c5ccc(F)cc5COc5cc(F)ccc54)ccc32)C1 [Example 33] | < 500 nM |
| CN1CCN(CCn2c(=O)[nH]c3cc(/C=C4/c5ccc(F)cc5OCc5c(F)cccc54)ccc32)CC1 [Example 34] | < 500 nM |
| O=c1[nH]c2cc(/C=C3/c4ccc(F)cc4OCc4c(F)cccc43)ccc2n1CCN1CCCC1 [Example 35] | < 500 nM |
| O=c1[nH]c2cc(/C=C3/c4ccc(F)cc4OCc4c(F)cccc43)ccc2n1C1CCNCC1 [Example 36] | < 500 nM |
| O=c1[nH]c2cc(/C=C3/c4ccc(F)cc4OCc4c(F)cccc43)ccc2n1[C@H]1CCNC1 [Example 37] | < 500 nM |
| C[C@H](CN1CCOCC1)n1c(=O)[nH]c2cc(/C=C3/c4ccc(F)cc4OCc4c(F)cccc43)ccc21 [Example 38] | < 500 nM |
| C[C@@H](CN1CCOCC1)n1c(=O)[nH]c2cc(/C=C3/c4ccc(F)cc4OCc4c(F)cccc43)ccc21 [Example 39] | < 500 nM |
| CC(C)(CN1CCOCC1)n1c(=O)[nH]c2cc(/C=C3/c4ccc(F)cc4OCc4c(F)cccc43)ccc21 [Example 40] | < 500 nM |
| C[C@@H]1CN(CCn2c(=O)[nH]c3cc(/C=C4/c5ccc(F)cc5OCc5c(F)cccc54)ccc32)C[C@H](C)O1 [Example 41] | < 500 nM |
| O=c1[nH]c2cc(/C=C3/c4ccc(F)cc4OCc4c(F)cccc43)ccc2n1CCCN1CCOCC1 [Example 42] | < 500 nM |
| O=c1[nH]c2cc(/C=C3/c4ccc(F)cc4OCc4c(F)cccc43)ccc2n1CCN1CCNCC1 [Example 43] | < 500 nM |
